Tests used:
Experiment in all cases: Kinase Profiling (KINOMEscan)
Format in all cases: binding
[1] = molecular target: 456 kinases (of these 395 non-mutant kinases) (Homo sapiens, UniProt O14920); details: IKK-beta; 10 μM
[2] = molecular target: 456 kinases (of these 395 non-mutant kinases) (Homo sapiens, UniProt Q07002); details: PCTK3; 10 μM
[3] = molecular target: 456 kinases (of these 395 non-mutant kinases) (Homo sapiens, UniProt P09769); details: FGR; 10 μM
[4] = molecular target: 456 kinases (of these 395 non-mutant kinases) (Homo sapiens, UniProt Q13177); details: PAK2; 10 μM
[5] = molecular target: 456 kinases (of these 395 non-mutant kinases) (Homo sapiens, UniProt P16234); details: PDGFRA; 10 μM
[6] = molecular target: 456 kinases (of these 395 non-mutant kinases) (Homo sapiens, UniProt Q92918); details: HPK1; 10 μM
[7] = molecular target: 456 kinases (of these 395 non-mutant kinases) (Homo sapiens, UniProt Q9Y463); details: DYRK1B; 10 μM
[8] = molecular target: 456 kinases (of these 395 non-mutant kinases) (Homo sapiens, UniProt Q92772); details: CDKL2; 10 μM
[9] = molecular target: 456 kinases (of these 395 non-mutant kinases) (Homo sapiens, UniProt Q9P286); details: PAK7; 10 μM
[10] = molecular target: 456 kinases (of these 395 non-mutant kinases) (Homo sapiens, UniProt P07949, V804L); details: RET(V804L); 10 μM
[11] = molecular target: 456 kinases (of these 395 non-mutant kinases) (Homo sapiens, UniProt Q13188); details: MST2; 10 μM
[12] = molecular target: 456 kinases (of these 395 non-mutant kinases) (Homo sapiens, UniProt P10721, D816H); details: KIT(D816H); 10 μM
[13] = molecular target: 456 kinases (of these 395 non-mutant kinases) (Homo sapiens, UniProt Q8N4C8); details: MINK; 10 μM
[14] = molecular target: 456 kinases (of these 395 non-mutant kinases) (Homo sapiens, UniProt O75385); details: ULK1; 10 μM
[15] = molecular target: 456 kinases (of these 395 non-mutant kinases) (Homo sapiens, UniProt Q15375); details: EPHA7; 10 μM
[16] = molecular target: 456 kinases (of these 395 non-mutant kinases) (Homo sapiens, UniProt Q16816); details: PHKG1; 10 μM
[17] = molecular target: 456 kinases (of these 395 non-mutant kinases) (Homo sapiens, UniProt P10721); details: 10 μM
[18] = molecular target: 456 kinases (of these 395 non-mutant kinases) (Homo sapiens, UniProt P07949, M918T); details: RET(M918T); 10 μM
[19] = molecular target: 456 kinases (of these 395 non-mutant kinases) (Homo sapiens, UniProt Q86V86); details: PIM3; 10 μM
[20] = molecular target: 456 kinases (of these 395 non-mutant kinases) (Homo sapiens, UniProt O00329); details: PIK3CD; 10 μM
[21] = molecular target: 456 kinases (of these 395 non-mutant kinases) (Homo sapiens, UniProt Q14289); details: PYK2; 10 μM
[22] = molecular target: 456 kinases (of these 395 non-mutant kinases) (Homo sapiens, UniProt Q8NEV4); details: MYO3A; 10 μM
[23] = molecular target: 456 kinases (of these 395 non-mutant kinases) (Homo sapiens, UniProt P22455); details: FGFR4; 10 μM
[24] = molecular target: 456 kinases (of these 395 non-mutant kinases) (Homo sapiens, UniProt Q9BWU1); details: CDK11; 10 μM
[25] = molecular target: 456 kinases (of these 395 non-mutant kinases) (Homo sapiens, UniProt Q5VT25); details: MRCKA; 10 μM
[26] = molecular target: 456 kinases (of these 395 non-mutant kinases) (Homo sapiens, UniProt P08922); details: ROS1; 10 μM
[27] = molecular target: 456 kinases (of these 395 non-mutant kinases) (Homo sapiens, UniProt P42684); details: ABL2; 10 μM
[28] = molecular target: 456 kinases (of these 395 non-mutant kinases) (Homo sapiens, UniProt P49761); details: CLK3; 10 μM
[29] = molecular target: 456 kinases (of these 395 non-mutant kinases) (Homo sapiens, UniProt Q6XUX3); details: RIPK5; 10 μM
[30] = molecular target: 456 kinases (of these 395 non-mutant kinases) (Homo sapiens, UniProt P35968); details: VEGFR2; 10 μM
[31] = molecular target: 456 kinases (of these 395 non-mutant kinases) (Homo sapiens, UniProt O15264); details: p38-delta; 10 μM
[32] = molecular target: 456 kinases (of these 395 non-mutant kinases) (Homo sapiens, UniProt Q13546); details: RIPK1; 10 μM

Sequence of 456 kinases (of these 395 non-mutant kinases) (Homo sapiens, UniProt P10721) (P10721 26-976 limits assumed, stated change not applied): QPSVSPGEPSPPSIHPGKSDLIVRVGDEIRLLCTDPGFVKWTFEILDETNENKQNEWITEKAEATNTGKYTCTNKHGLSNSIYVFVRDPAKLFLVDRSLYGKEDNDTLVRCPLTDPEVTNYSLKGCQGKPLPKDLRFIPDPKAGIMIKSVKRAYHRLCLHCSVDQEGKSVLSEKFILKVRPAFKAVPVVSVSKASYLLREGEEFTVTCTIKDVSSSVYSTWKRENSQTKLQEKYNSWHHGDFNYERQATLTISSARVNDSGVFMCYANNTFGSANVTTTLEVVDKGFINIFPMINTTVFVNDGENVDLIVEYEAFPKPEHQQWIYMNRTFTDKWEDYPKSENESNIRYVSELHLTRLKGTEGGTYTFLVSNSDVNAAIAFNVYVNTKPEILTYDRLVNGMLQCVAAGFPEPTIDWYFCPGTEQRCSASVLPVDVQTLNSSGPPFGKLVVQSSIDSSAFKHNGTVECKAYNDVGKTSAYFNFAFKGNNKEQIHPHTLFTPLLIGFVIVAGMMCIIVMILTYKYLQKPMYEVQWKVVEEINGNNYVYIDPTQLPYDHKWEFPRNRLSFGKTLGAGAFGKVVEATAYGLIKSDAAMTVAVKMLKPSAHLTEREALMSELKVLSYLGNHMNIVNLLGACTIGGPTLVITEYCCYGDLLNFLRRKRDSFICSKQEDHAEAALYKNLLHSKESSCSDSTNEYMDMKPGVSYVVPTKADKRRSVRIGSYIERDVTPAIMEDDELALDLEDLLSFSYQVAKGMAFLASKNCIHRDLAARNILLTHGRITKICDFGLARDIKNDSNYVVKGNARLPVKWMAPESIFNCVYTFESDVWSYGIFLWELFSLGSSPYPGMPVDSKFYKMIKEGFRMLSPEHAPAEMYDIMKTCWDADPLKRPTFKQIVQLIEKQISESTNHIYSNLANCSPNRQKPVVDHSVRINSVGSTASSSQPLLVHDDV
Sequence of 456 kinases (of these 395 non-mutant kinases) (Homo sapiens, UniProt P42684) (P42684 2-1182 limits assumed, change not shown): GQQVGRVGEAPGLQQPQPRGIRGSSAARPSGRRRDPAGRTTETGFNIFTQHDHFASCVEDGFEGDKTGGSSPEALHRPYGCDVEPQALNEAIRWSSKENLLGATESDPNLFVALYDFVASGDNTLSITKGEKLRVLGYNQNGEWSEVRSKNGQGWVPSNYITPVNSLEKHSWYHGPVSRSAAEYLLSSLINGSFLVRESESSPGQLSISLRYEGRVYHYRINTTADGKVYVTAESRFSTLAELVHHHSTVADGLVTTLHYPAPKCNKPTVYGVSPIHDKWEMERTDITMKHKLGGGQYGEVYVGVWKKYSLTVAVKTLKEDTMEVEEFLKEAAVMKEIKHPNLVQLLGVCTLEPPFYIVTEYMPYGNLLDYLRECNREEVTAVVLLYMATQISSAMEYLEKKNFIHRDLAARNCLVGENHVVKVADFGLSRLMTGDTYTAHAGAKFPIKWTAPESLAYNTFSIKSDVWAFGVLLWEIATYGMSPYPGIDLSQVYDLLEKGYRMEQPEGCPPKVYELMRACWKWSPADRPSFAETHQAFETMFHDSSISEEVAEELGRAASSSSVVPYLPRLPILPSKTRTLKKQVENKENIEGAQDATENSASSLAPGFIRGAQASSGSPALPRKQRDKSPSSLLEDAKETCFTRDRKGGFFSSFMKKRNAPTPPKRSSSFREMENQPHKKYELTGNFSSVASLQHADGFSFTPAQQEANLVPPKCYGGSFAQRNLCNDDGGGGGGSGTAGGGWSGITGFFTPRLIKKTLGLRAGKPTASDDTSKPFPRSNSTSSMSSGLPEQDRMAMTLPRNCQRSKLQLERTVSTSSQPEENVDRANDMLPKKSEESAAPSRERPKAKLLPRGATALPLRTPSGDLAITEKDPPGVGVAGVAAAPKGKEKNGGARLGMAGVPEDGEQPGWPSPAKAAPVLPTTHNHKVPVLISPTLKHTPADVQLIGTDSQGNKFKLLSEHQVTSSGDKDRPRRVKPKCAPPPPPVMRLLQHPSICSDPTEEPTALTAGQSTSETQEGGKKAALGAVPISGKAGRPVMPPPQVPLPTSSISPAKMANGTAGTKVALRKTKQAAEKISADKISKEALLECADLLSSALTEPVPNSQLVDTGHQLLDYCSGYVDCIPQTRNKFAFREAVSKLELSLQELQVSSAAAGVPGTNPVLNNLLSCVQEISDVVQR
Sequence of 456 kinases (of these 395 non-mutant kinases) (Homo sapiens, UniProt P10721, D816H) (P10721 26-976 D816H limits assumed): as the sequence (P10721 26-976 limits assumed, stated change not applied) above, with D791H counted along it
Sequence of 456 kinases (of these 395 non-mutant kinases) (Homo sapiens, UniProt P16234) (P16234 24-1089 limits assumed, change not shown): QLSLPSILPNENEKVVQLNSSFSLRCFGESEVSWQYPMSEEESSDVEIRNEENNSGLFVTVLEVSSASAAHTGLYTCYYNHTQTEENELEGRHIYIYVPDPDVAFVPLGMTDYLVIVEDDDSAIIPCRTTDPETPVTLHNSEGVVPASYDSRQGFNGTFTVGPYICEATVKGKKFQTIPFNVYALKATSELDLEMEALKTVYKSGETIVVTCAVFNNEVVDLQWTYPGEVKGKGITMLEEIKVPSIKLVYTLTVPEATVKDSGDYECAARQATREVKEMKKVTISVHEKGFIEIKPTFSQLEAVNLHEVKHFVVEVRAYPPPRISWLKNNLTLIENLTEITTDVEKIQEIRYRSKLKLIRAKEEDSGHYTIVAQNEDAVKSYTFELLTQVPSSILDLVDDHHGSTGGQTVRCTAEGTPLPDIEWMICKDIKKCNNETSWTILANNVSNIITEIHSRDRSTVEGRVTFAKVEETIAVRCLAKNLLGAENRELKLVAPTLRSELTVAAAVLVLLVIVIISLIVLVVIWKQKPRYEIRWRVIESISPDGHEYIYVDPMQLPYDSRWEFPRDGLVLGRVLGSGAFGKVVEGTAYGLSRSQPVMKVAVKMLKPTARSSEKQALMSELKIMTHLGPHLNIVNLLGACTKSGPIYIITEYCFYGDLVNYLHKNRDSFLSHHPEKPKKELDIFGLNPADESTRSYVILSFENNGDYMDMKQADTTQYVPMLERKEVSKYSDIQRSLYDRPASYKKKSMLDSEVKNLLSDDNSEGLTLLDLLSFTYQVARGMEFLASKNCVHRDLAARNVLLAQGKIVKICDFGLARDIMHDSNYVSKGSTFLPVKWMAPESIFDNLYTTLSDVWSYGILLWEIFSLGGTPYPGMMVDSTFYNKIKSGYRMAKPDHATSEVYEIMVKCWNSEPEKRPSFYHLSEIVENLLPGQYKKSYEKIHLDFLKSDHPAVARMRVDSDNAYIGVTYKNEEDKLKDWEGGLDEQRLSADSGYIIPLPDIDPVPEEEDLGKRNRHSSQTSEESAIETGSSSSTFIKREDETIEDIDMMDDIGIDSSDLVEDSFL
Sequence of 456 kinases (of these 395 non-mutant kinases) (Homo sapiens, UniProt Q15375) (Q15375 28-998 limits assumed, change not shown): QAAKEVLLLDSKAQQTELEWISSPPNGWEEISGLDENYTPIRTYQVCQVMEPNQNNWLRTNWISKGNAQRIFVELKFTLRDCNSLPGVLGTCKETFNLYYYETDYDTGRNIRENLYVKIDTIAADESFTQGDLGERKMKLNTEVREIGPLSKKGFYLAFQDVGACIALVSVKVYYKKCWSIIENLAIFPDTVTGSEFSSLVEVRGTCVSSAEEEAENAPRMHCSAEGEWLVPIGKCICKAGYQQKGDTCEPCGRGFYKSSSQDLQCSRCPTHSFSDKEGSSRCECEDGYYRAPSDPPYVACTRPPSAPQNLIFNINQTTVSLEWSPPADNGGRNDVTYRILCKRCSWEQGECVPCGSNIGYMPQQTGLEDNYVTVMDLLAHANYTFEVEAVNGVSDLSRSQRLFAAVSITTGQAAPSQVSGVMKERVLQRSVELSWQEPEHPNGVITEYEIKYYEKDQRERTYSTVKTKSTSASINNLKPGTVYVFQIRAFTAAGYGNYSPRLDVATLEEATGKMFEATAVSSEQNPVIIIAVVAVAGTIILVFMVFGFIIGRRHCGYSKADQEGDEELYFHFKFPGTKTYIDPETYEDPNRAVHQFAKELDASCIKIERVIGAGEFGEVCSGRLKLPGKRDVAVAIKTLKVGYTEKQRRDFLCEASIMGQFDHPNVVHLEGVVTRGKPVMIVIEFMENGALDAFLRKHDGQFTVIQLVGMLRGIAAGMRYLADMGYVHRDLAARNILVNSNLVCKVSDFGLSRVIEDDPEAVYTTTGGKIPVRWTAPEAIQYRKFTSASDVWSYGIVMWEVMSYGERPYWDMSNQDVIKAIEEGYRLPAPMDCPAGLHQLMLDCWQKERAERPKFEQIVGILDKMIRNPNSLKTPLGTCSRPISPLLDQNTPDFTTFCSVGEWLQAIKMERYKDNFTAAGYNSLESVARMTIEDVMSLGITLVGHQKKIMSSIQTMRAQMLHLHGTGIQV
Sequence of 456 kinases (of these 395 non-mutant kinases) (Homo sapiens, UniProt P09769) (P09769 2-529 limits assumed, change not shown): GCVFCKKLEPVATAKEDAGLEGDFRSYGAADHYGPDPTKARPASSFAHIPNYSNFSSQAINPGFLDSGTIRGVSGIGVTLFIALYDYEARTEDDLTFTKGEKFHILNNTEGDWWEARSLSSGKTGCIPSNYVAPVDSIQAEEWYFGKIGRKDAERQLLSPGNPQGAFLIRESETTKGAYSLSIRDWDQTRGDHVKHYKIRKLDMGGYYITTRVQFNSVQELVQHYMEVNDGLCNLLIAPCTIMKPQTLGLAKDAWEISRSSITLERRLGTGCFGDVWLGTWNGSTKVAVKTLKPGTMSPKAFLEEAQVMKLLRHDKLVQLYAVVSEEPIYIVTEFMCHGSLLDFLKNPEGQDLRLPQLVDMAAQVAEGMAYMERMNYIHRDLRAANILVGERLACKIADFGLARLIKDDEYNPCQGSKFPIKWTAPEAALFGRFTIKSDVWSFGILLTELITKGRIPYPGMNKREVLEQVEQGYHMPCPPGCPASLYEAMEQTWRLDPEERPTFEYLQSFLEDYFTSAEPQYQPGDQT

Question: What does the source list for CCc1ccccc1NC(=O)c1c(C)nsc1Nc1cnc2cc(F)ccc2n1 [Example 20, N-(2-Ethylphenyl)-5-[(6-fluoroquinoxalin-2-yl)amino]-3-methyl-1,2-thiazole-4-carboxamide]?
Answer: % Ctrl @ 10 μM [1]: 90 % Ctrl; % Ctrl @ 10 μM [2]: 82 % Ctrl; % Ctrl @ 10 μM [3]: 80 % Ctrl; % Ctrl @ 10 μM [4]: 100 % Ctrl; % Ctrl @ 10 μM [5]: 100 % Ctrl; % Ctrl @ 10 μM [6]: 60 % Ctrl; % Ctrl @ 10 μM [7]: 100 % Ctrl; % Ctrl @ 10 μM [8]: 100 % Ctrl; % Ctrl @ 10 μM [9]: 94 % Ctrl; % Ctrl @ 10 μM [10]: 89 % Ctrl; % Ctrl @ 10 μM [11]: 100 % Ctrl; % Ctrl @ 10 μM [12]: 97 % Ctrl; % Ctrl @ 10 μM [13]: 100 % Ctrl; % Ctrl @ 10 μM [14]: 100 % Ctrl; % Ctrl @ 10 μM [15]: 100 % Ctrl; % Ctrl @ 10 μM [16]: 70 % Ctrl; % Ctrl @ 10 μM ([17]; KIT-autoinhibited): 100 % Ctrl; % Ctrl @ 10 μM ([17]; KIT): 98 % Ctrl; % Ctrl @ 10 μM [18]: 78 % Ctrl; % Ctrl @ 10 μM [19]: 100 % Ctrl; % Ctrl @ 10 μM [20]: 100 % Ctrl; % Ctrl @ 10 μM [21]: 100 % Ctrl; % Ctrl @ 10 μM [22]: 86 % Ctrl; % Ctrl @ 10 μM [23]: 77 % Ctrl; % Ctrl @ 10 μM [24]: 100 % Ctrl; % Ctrl @ 10 μM [25]: 92 % Ctrl; % Ctrl @ 10 μM [26]: 89 % Ctrl; % Ctrl @ 10 μM [27]: 100 % Ctrl; % Ctrl @ 10 μM [28]: 74 % Ctrl; % Ctrl @ 10 μM [29]: 100 % Ctrl; % Ctrl @ 10 μM [30]: 100 % Ctrl; % Ctrl @ 10 μM [31]: 100 % Ctrl; % Ctrl @ 10 μM [32]: 99 % Ctrl

Reference: US9682995B2, “Amino-substituted isothiazoles” (BAYER PHARMA AKTIENGESELLSCHAFT, priority 2013, dated 2017)
